Like-named read-outs stand apart in the source and are kept apart here.

In experiment [1] the target is T1, 17β-HSD3 (Homo sapiens, UniProt P37058).
T1 construct: expressed in transfected cells; host or cells: HEK-293 (homogenate)
T1 sequence (P37058 1-310): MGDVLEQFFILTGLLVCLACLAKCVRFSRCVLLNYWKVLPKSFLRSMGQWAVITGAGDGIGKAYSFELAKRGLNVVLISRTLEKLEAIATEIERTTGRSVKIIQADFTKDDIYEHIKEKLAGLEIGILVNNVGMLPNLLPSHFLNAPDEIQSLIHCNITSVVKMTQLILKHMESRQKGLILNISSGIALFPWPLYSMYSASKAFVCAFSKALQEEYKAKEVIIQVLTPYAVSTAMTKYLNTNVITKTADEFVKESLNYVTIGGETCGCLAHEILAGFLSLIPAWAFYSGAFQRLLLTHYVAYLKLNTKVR
As to the kind of experiment: Inhibition of 17β-HSD3 in homogenated HEK-293 cells. In kind it is biochemical.

In experiment [2] the target is T1, 17β-HSD3. As to the kind of experiment: Inhibition of 17β-HSD3 in intact HEK-293 cells. To be noted: for Intact cells (%), tested at 1 μM: Table 3, footnote b. In kind it is cell-based.
Another experiment concerns the target T2, 17β-HSD10 (Homo sapiens, UniProt Q99714).
T2 construct: expressed in transfected cells
T2 sequence (Q99714 1-261): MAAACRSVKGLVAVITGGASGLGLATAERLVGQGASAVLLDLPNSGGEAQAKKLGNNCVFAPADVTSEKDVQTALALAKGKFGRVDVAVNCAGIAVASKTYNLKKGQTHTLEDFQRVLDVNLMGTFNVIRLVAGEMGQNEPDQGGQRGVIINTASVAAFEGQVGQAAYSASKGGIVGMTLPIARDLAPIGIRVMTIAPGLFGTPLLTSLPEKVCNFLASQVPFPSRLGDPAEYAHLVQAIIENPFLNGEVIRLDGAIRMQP
As to the kind of experiment: Inhibition of 17β-HSD10 in stably transfected HEK-293 whole cells (E2 into E1). In kind it is cell-based.

In another experiment the target is T3, 17β-HSD1 (Homo sapiens, UniProt P14061).
T3 construct: endogenous in cells; host or cells: T-47D
T3 sequence (P14061 1-328): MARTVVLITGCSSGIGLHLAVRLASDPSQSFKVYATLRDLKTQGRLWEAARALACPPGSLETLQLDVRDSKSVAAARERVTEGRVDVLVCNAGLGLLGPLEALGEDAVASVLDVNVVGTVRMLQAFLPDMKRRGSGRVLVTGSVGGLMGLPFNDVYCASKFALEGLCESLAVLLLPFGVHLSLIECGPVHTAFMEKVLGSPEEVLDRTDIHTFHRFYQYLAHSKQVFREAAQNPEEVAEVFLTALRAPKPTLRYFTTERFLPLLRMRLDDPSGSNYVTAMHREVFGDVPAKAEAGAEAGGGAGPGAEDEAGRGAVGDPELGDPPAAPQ
As to the kind of experiment: Inhibition of 17β-HSD1 in T-47D intact cells (E1 into E2). In kind it is cell-based. To be noted: T47D. How it is done:
T-47D cells were seeded in a 24-well plate (3000 cells/well) in medium supplemented with insulin (50 ng/mL) and 5% dextran-coated charcoal treated FBS rather than 10% FBS to remove remaining hormones. […] Each inhibitor was assessed in triplicate. After incubation, the culture medium was removed and labelled steroids (E1 and E2) extracted with 1 mL of diethyl ether. The organic phases were separated and evaporated to dryness using nitrogen. Residues were dissolved in dichloromethane and dropped on silica gel thin layer chromatography plates (EMD Chemicals Inc., Gibbstown, N.J., USA) and eluted with a toluene/acetone (4:1) solvent system. Substrate [^14C]-E1 and metabolite [^14C]-E2 were identified by comparison with reference steroids and quantified using a Storm 860 system (Molecular Dynamics, Sunnyvale, Calif., USA).
T-47D cells were seeded in a 24-well plate (3000 cells/well) in 990 μL of medium supplemented with insulin (50 ng/mL) and 5% dextran-coated charcoal-treated FBS, which was used rather than untreated 10% FBS, to remove the remaining steroid hormones. […] The final concentration of ethanol in the well was adjusted to 0.1%. Additionally, 5 μL of a solution of [^14C]-estrone (American Radiolabeled Chemicals, Inc., St. Louis, Mo., USA) was added to obtain a final concentration of 60 nM. […] After incubation, the culture medium was removed and labeled steroids (E1 and E2) were extracted with 1 mL of diethyl ether. The organic phases were evaporated to dryness with nitrogen. Residues were dissolved in dichloromethane and dropped on silica gel thin layer chromatography plates (EMD Chemicals Inc., Gibbstown, N.J., USA) and eluted with toluene/acetone (4:1) as solvent system. Substrate [^14C]-E1 and metabolite [^14C]-E2 were identified by comparison with reference steroids (E1 and E2) and quantified using the Storm 860 system (Molecular Dynamics, Sunnyvale, Calif., USA).

Setting [3] is: Table 3, read-out: Homo (%) (0.01 μM).
Setting [4] is: Table 3, read-out: Homo (%) (0.1 μM).
[5] abbreviates: HEK293, 1 h, Table 3, read-out: Intact cells (%) (0.1 μM).
Where [6] appears, read: HEK293, [14C]-E2 (1 μM) into [14C]-E1, intact HEK-293 cells, 1 μM, read-out: Inhibition (%) at 1 μM.
Where [7] appears, read: [14C]-E2 (1 μM) into [14C]-E1, intact HEK-293 cells, 1 μM.

As for `C[C@]12CC[C@](O)(CN3CCN(Cc4ccccc4)CC3)C[C@@H]1CC[C@@H]1[C@@H]2CC[C@]2(C)C(=O)CC[C@@H]12` [Compound 7j, (3α,5α)-3-[(4-benzylpiperazin-1-yl)methyl]-3-hydroxyandrostan-17-one], the inhibition at 0.01 µM at 17β-HSD3 [1] (Table 2 (17β-HSD3), [14C]-Δ4-dione 50 nM into [14C]-T, read-out: Homo (%) (0.01 μM)) worked out at 35%; on 17β-HSD3 [1] (read-out: Homo (%) (0.01 μM), Table 3), 36%. Moreover, the inhibition at 0.1 µM was 72% on 17β-HSD3 [1] (read-out: Homo (%) (0.1 μM), Table 2 (17β-HSD3)); 74% at 17β-HSD3 [1] (read-out: Homo (%) (0.1 μM), Table 3); 37% at 17β-HSD3 [2] (HEK293, 1 h, read-out: Intact cells (%) (0.1 μM), Table 2 (17β-HSD3)); 38% at 17β-HSD3 [2] (HEK293, 1 h, read-out: Intact cells (%) (0.1 μM), Table 3). For the same compound, the inhibition at 1 µM was determined as 90% on 17β-HSD3 [1] (read-out: Homo (%) (1 μM), Table 2 (17β-HSD3), 1 μM); 80% on 17β-HSD3 [2] (HEK293, 1 h, read-out: Intact cells (%) (1 μM), Table 2 (17β-HSD3), 1 μM); 57% on 17β-HSD10 (HEK293, read-out: Inhibition (%) at 1 μM).
As for `C[C@]12CC[C@](O)(CN3CCN(Cc4cccc(C(F)(F)F)c4)CC3)C[C@@H]1CC[C@@H]1[C@@H]2CC[C@]2(C)C(=O)CC[C@@H]12` [Compound 10a, (3α,5α)-3-hydroxy-3-({4-[3-(trifluoromethyl)benzyl]piperazin-1-yl}methyl)androstan-17-one], the inhibition at 0.01 µM on 17β-HSD3 [1] (setting [3]) is 51%. Besides, the values for the inhibition at 0.1 µM at 17β-HSD3 [1] (setting [4]) and at 17β-HSD3 [2] (setting [5]) were 88% and 52%, respectively. The inhibition at 1 µM on 17β-HSD10 (setting [6]) is 34%.
Taken in the same sequence, the figures for `C[C@]12CC[C@](O)(CN3CCN(Cc4ccccc4C(F)(F)F)CC3)C[C@@H]1CC[C@@H]1[C@@H]2CC[C@]2(C)C(=O)CC[C@@H]12` [Compound 10b, (3α,5α)-3-hydroxy-3-({4-[2-(trifluoromethyl)benzyl]piperazin-1-yl}methyl)androstan-17-one] were 18%, 86%, 20% and 50%.
On to `C[C@]12CC[C@](O)(CN3CCN(Cc4cccc(SC(F)(F)F)c4)CC3)C[C@@H]1CC[C@@H]1[C@@H]2CC[C@]2(C)C(=O)CC[C@@H]12` [Compound 10d, (3α,5α)-3-hydroxy-3-[(4-{3-[(trifluoromethyl)sulfanyl]benzyl}piperazin-1-yl)methyl]androstan-17-one], for which, at 17β-HSD3 [1] (setting [3]), the inhibition at 0.01 µM stood at 3%. In addition, on 17β-HSD3 [1] (setting [4]), the inhibition at 0.1 µM is 91%. Besides, the “Intact cells (%), tested at 1 μM” value at 17β-HSD3 [2] (1 μM) is recorded as “N/A (62)^b %”. Besides, the inhibition at 1 µM at 17β-HSD10 (setting [6]) worked out at 29%.
In the case of `C[C@]12CC[C@](O)(CN3CCN(Cc4cccc(Cl)c4)CC3)C[C@@H]1CC[C@@H]1[C@@H]2CC[C@]2(C)C(=O)CC[C@@H]12` [Compound 10e, (3α,5α)-3-{[4-(3-chlorobenzyl)piperazin-1-yl]methyl}-3-hydroxyandrostan-17-one], at 17β-HSD3 [1] (Table 3), the “Homo (%) (0.01 μM)” value was 26% and the “Homo (%) (0.1 μM)” value was determined as 85%. In addition, at 17β-HSD3 [2] (1 μM), the “Intact cells (%), tested at 1 μM” value was “N/A (75)^b %”. At 17β-HSD10 (setting [7]), the “Inhibition (%) at 1 μM” value came out at 21%.
A word on the IC50: it is the concentration that gives 50% inhibition. Regarding `COc1cccc(CN2CCN(C[C@@]3(O)CC[C@@]4(C)[C@@H](CC[C@@H]5[C@@H]4CC[C@]4(C)C(=O)CC[C@@H]54)C3)CC2)c1` [Compound 10f, (3α,5α)-3-hydroxy-3-{[4-(3-methoxybenzyl)piperazin-1-yl]methyl}androstan-17-one], the inhibition at 0.01 µM on 17β-HSD3 [1] (setting [3]) is 21%. Besides, the values for the inhibition at 0.1 µM at 17β-HSD3 [1] (setting [4]) and at 17β-HSD3 [2] (setting [5]) were 83% and 47%, respectively. Also, on 17β-HSD10 (setting [6]), the inhibition at 1 µM came out at 59%. Also, the IC50 at 17β-HSD10 (intact transfected HEK-293 cells, E2 1 μM, read-out: IC50) amounted to 550 nM.
Regarding `C[C@]12CC[C@](O)(CN3CCN(Cc4cccnc4)CC3)C[C@@H]1CC[C@@H]1[C@@H]2CC[C@]2(C)C(=O)CC[C@@H]12` [Compound 10g, (3α,5α)-3-hydroxy-3-{[4-(pyridin-3-ylmethyl)piperazin-1-yl]methyl}androstan-17-one], the inhibition at 0.01 µM at 17β-HSD3 [1] (setting [3]) was 10%. Further, the inhibition at 0.1 µM at 17β-HSD3 [1] (setting [4]) was 33%. Further, the “Intact cells (%), tested at 1 μM” value on 17β-HSD3 [2] (1 μM) is recorded as “N/A (63)^b %”. Moreover, the inhibition at 1 µM on 17β-HSD10 (setting [6]) was determined as 37%.
`CC1CN(C[C@@]2(O)CC[C@@]3(C)[C@@H](CC[C@@H]4[C@@H]3CC[C@]3(C)C(=O)CC[C@@H]43)C2)C(C)CN1Cc1cccc(C(F)(F)F)c1` (stereo partly drawn) [Compound 11a, (3α,5α)-3-({(2ξ,5ξ)-2,5-dimethyl-4-[3-(trifluoromethyl)benzyl]piperazin-1-yl}methyl)-3-hydroxyandrostan-17-one]: on 17β-HSD3 [1] (Table 3), the “Homo (%) (0.01 μM)” value was 31% and the “Homo (%) (0.1 μM)” value stood at 89%. Further, the “Intact cells (%), tested at 1 μM” value on 17β-HSD3 [2] (1 μM) is on record as “N/A (78)^b %”. Moreover, the “Inhibition (%) at 1 μM” value on 17β-HSD10 (setting [7]) amounted to 26%.
For `CC1CN(CC2(O)CCC3(C)C(CCC4C5CCC(=O)C5(C)CCC43)C2)C(C)CN1Cc1ccccc1C(F)(F)F` (stereo not drawn) [Compound 11b, (3α,5α)-3-({(2ξ,5ξ)-2,5-dimethyl-4-[2-(trifluoromethyl)benzyl]piperazin-1-yl}methyl)-3-hydroxyandrostan-17-one], at 17β-HSD3 [1] (Table 3), the “Homo (%) (0.01 μM)” value was 22% and the “Homo (%) (0.1 μM)” value is 85%. Also, the “Intact cells (%) (0.1 μM)” value at 17β-HSD3 [2] (Table 3) came out at 36%. In addition, the “Inhibition (%) at 1 μM” value at 17β-HSD10 (setting [7]) is listed as 25%.
For `CC1CN(C[C@@]2(O)CC[C@@]3(C)[C@@H](CC[C@@H]4[C@@H]3CC[C@]3(C)C(=O)CC[C@@H]43)C2)C(C)CN1Cc1ccc(C(F)(F)F)cc1` (stereo partly drawn) [Compound 11c, (3α,5α)-3-({(2ξ,5ξ)-2,5-dimethyl-4-[4-(trifluoromethyl)benzyl]piperazin-1-yl}methyl)-3-hydroxyandrostan-17-one], at 17β-HSD3 [1] (Table 3), the “Homo (%) (0.01 μM)” value amounted to 14% and the “Homo (%) (0.1 μM)” value came out at 87%. In addition, the “Intact cells (%) (0.1 μM)” value at 17β-HSD3 [2] (Table 3) is 36%. The “Inhibition (%) at 1 μM” value on 17β-HSD10 (setting [7]) worked out at 24%.
As for `C[C@]12CC[C@@H]3c4ccc(CBr)cc4CC[C@H]3[C@@H]1C[C@H](Cc1cccc(C(N)=O)c1)[C@@H]2O` [III, 3-{[(16β,17β)-3-(bromomethyl)-17-hydroxyestra-1,3,5(10)-trien-16-yl]methyl}benzamide], the inhibition at 0.01 µM on 17β-HSD1 (read-out: Inhibition % (0.01 μM)) amounted to 20%. For the same compound, the inhibition at 0.1 µM was found to be 36% on 17β-HSD1 (read-out: Inhibition % (0.1 μM)) and 19% at 17β-HSD1 (read-out: Inhibition (0.1 μM)). For the same compound, the inhibition at 1 µM on 17β-HSD1 (read-out: Inhibition (1 μM)) turned out to be 66%.

The values above are taken from patent publication US11072632B2, “Inhibitors of 17β-HSD1, 17β-HSD3 and 17β-HSD10” (UNIVERSITÉ LAVAL, priority 2011, dated 2021).
